Source: ChEMBL document CHEMBL5154942, “Discovery of Clinical Candidate NTQ1062 as a Potent and Bioavailable Akt Inhibitor for the Treatment of Human Tumors” (J Med Chem, 2022)
Blank lines part the entries; values can stand above or below the molecule they belong to.

Tests used:
LNCaP [1] = test: Antiproliferative activity against human LNcap assessed as reduction in cell viability incubated for 72 hrs by Cell Titer Glo luminescent assay
[2] = AUC (0 to infinity) in overnight fasted ICR mouse at 10 mg/kg, po measured upto 24 hrs by UPLC-MS/MS analysis; format: ADME, organism-based; design: dose 10 mg/kg, time < 24 hrs, route po; details: in vivo
[3] = biological target: RAC-alpha serine/threonine-protein kinase (Homo sapiens, UniProt P31749); test: Inhibition of recombinant AKT1 (104 to 480 end residues) (unknown origin) catalytic domain expressed in Sf21 cells using peptide substrate incubated for 1 hr in presence of ATP by caliper off-chip mobility shift assay
RAC-alpha serine/threonine-protein kinase, sequence (P31749 whole entry, the tested form may be a part): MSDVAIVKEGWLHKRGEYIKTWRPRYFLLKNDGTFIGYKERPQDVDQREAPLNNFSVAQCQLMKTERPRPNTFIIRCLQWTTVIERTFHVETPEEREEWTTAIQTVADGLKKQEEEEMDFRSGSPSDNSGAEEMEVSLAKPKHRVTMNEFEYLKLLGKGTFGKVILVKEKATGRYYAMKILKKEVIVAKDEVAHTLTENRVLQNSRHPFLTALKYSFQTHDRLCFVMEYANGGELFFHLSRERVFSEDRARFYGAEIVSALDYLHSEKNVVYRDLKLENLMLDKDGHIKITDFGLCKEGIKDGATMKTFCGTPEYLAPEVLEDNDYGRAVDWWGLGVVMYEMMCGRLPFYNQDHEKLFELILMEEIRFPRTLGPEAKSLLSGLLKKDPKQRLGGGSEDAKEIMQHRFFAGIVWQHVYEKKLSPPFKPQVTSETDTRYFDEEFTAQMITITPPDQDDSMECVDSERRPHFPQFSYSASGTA

LNCaP [4] = test: In vivo antitumor activity against human LNCap cells xenografted in NCG mouse assessed as tumor growth inhibition at 50 mg/kg administered once daily for 18 to 21 days relative to control; format: functional; details: time 18-21 day, read-out: TGI
[5] = Plasma protein binding in human assessed as unbound fraction at 1 to 100 uM incubated for 16 hrs by UPLC-MS/MS analysis; format: ADME, cell-free; details: dose 1-100 µM
[6] = Cmax in overnight fasted ICR mouse at 10 mg/kg, po measured upto 24 hrs by UPLC-MS/MS analysis; format: ADME, organism-based; design: dose 10 mg/kg, time < 24 hrs, route po; details: in vivo
[7] = Plasma protein binding in human at 1 to 100 uM incubated for 16 hrs by UPLC-MS/MS analysis; format: ADME, cell-free; details: dose 1-100 µM, read-out: PPB (converted)
[8] = Plasma protein binding in mouse at 1 to 100 uM incubated for 16 hrs by UPLC-MS/MS analysis; format: ADME, cell-free; details: dose 1-100 µM, read-out: PPB (converted)
Cytochrome P450 1A2 = biological target: T1, Cytochrome P450 1A2 (Homo sapiens, UniProt P05177); test: Inhibition of CYP1A2 in human liver microsomes at 0.01 to 30 uM […] in presence of NADPH by UPLC-MS/MS analysis; format: ADME, Microsome
T1 sequence (P05177 whole entry): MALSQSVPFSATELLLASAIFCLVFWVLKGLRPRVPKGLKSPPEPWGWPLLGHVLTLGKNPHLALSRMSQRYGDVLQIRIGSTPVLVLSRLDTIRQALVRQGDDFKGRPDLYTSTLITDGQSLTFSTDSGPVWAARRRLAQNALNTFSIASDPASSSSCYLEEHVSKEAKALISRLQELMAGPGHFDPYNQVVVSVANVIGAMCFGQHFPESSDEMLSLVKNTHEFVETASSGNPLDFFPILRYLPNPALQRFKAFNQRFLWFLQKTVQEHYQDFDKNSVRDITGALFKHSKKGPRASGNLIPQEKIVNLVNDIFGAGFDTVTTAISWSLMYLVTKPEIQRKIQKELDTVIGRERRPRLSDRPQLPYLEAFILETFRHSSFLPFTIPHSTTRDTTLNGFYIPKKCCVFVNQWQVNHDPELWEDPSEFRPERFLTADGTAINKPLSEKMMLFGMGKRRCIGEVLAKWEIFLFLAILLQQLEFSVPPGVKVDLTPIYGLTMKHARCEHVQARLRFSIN

[9] = Tmax in overnight fasted ICR mouse at 10 mg/kg, po measured upto 24 hrs by UPLC-MS/MS analysis; format: ADME, organism-based; details: in vivo
[10] = Half life in ICR mouse at 2 mg/kg, iv measured upto 24 hrs by UPLC-MS/MS analysis; format: ADME, organism-based; details: in vivo
[11] = AUC (0 to infinity) in ICR mouse at 2 mg/kg, iv measured upto 24 hrs by UPLC-MS/MS analysis; format: ADME, organism-based; design: dose 2 mg/kg, time < 24 hrs, route iv; details: in vivo
Cytochrome P450 2C19 = Cytochrome P450 2C19 (Homo sapiens, UniProt P33261); test: Inhibition of CYP2C19 in human liver microsomes at 0.01 to 30 uM using mephenytoin as substrate in presence of NADPH by UPLC-MS/MS analysis; format: ADME, Microsome
Cytochrome P450 2C19, sequence (P33261 whole entry): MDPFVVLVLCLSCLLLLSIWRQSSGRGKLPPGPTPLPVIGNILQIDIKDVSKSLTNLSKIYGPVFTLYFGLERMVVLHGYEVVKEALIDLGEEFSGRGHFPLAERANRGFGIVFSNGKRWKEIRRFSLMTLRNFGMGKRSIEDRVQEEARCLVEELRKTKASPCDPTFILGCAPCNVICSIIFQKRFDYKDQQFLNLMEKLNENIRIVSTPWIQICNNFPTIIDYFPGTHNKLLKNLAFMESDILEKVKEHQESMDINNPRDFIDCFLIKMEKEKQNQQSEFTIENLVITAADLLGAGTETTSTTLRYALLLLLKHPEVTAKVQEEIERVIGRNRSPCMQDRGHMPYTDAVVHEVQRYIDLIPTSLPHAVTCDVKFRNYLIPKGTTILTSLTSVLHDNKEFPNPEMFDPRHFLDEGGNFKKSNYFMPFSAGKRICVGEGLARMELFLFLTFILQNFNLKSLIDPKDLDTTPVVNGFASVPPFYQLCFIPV

Cytochrome P450 2C9 = Cytochrome P450 2C9 (Homo sapiens, UniProt P11712); test: Inhibition of CYP2C9 in human liver microsomes at 0.01 to 30 uM using diclofenac as substrate in presence of NADPH by UPLC-MS/MS analysis; format: ADME, Microsome
Cytochrome P450 2C9, sequence (P11712 whole entry): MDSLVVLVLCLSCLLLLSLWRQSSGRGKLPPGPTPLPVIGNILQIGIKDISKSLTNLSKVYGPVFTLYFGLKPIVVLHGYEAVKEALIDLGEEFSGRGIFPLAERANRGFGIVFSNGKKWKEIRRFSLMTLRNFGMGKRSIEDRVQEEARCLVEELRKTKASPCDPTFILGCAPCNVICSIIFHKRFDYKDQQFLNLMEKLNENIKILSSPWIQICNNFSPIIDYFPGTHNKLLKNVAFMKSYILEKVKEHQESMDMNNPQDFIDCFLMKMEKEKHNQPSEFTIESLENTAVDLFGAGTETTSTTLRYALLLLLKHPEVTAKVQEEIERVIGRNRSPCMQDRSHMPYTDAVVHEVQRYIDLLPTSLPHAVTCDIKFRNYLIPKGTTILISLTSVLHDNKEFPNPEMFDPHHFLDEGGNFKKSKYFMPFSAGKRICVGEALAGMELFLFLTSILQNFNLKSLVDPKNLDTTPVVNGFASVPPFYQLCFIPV

[12] = Clearance in ICR mouse at 2 mg/kg, iv measured upto 24 hrs by UPLC-MS/MS analysis; format: ADME, organism-based; details: in vivo
Cytochrome P450 3A4 = Cytochrome P450 3A4 (Homo sapiens, UniProt P08684); test: Inhibition of CYP3A4 in human liver microsomes at 0.01 to 30 uM […] in presence of NADPH by UPLC-MS/MS analysis; format: ADME, Microsome
Cytochrome P450 3A4, sequence (P08684 whole entry): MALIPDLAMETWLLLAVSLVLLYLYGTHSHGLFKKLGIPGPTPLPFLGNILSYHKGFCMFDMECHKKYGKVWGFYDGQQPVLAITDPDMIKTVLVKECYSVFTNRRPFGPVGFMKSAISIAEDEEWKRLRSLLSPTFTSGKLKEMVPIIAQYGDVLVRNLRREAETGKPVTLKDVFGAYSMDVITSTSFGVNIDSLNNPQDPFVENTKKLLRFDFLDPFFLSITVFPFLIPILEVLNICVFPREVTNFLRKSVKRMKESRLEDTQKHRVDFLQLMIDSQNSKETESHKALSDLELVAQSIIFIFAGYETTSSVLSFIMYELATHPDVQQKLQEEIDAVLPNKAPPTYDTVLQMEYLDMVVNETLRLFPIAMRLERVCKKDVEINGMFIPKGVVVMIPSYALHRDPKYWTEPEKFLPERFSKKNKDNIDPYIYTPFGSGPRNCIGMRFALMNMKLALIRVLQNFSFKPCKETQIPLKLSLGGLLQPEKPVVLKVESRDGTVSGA

Cytochrome P450 2D6 = Cytochrome P450 2D6 (Homo sapiens, UniProt P10635); test: Inhibition of CYP2D6 in human liver microsomes at 0.01 to 30 uM using dextromethorphan as substrate in presence of NADPH by UPLC-MS/MS analysis; format: ADME, Microsome
Cytochrome P450 2D6, sequence (P10635 whole entry): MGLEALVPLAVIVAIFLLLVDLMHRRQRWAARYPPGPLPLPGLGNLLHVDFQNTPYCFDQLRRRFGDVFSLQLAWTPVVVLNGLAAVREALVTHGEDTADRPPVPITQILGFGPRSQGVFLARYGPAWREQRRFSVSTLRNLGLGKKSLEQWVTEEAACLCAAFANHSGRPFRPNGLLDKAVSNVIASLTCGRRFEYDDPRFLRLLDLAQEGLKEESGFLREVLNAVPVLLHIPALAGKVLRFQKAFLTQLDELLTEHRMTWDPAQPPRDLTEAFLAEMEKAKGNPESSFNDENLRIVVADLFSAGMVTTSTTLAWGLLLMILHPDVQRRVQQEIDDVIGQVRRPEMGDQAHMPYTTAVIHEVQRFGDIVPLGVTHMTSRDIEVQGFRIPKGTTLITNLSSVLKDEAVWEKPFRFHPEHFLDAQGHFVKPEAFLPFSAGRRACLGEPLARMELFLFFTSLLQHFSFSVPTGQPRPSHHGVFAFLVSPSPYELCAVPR

[13] = Oral bioavailability in overnight fasted ICR mouse at 10 mg/kg measured upto 24 hrs by UPLC-MS/MS analysis; format: ADME, organism-based; details: in vivo
[14] = MRT(0 to t) in overnight fasted ICR mouse at 10 mg/kg, po measured upto 24 hrs by UPLC-MS/MS analysis; format: ADME, organism-based; details: in vivo
C-33-A = test: cells; details: Homo sapiens, 72 h
RL95-2 = test: cells; details: Homo sapiens, RL95-2, 72 h
T47D = test: cells; details: Homo sapiens, 72 h
PC-3 = test: cells; details: Homo sapiens, PC-3, 72 h
ZR-75-1 = test: cells; details: Homo sapiens, ZR-75-1, 72 h
TOV21G = test: cells; details: Homo sapiens, 72 h
CAL-51 = test: cells; details: Homo sapiens, CAL-51, 72 h
cells = details: Homo sapiens, COLO 704, 72 h

Compound: CC(C)NC[C@@H](C(=O)N1CC2CCC(C1)N2c1ncnc2c1[C@H](C)CC(=O)N2)c1ccc(Cl)cc1
IC50 (LNCaP [1]): 446 nM
AUC(0-inf) [2]: 1480 ng·h/mL

Compound: [2H]C1([2H])N(C(=O)[C@H](CNC(C)C)c2ccc(Cl)cc2)C([2H])([2H])C([2H])([2H])N(c2ncnc3c2[C@H](C)CC(=O)N3)C1([2H])[2H]
IC50 (LNCaP [1]): 131 nM
IC50 [3]: 1.6 nM
AUC(0-inf) [2]: 947 ng·h/mL

Compound: Cc1c(CO)ncnc1N1CCN(C(=O)[C@H](CNC(C)C)c2ccc(Cl)cc2)CC1
IC50 [3]: > 1000 nM

Compound: CC(C)NC[C@@H](C(=O)N1CCN(c2cc[nH]c(=O)c2)CC1)c1ccc(Cl)cc1
IC50 [3]: > 1000 nM

Compound: CC(C)NC[C@@H](C(=O)N1[C@@H]2CC[C@H]1CN(c1ncnc3c1[C@H](C)OC(=O)N3)C2)c1ccc(Cl)cc1
IC50 (LNCaP [1]): 84 nM
IC50 [3]: 0.6 nM
AUC(0-inf) [2]: 727 ng·h/mL

Compound: CC(C)NC[C@@H](C(=O)N1C2CCC1CN(c1ncnc3c1N(C)CC(=O)N3)C2)c1ccc(Cl)cc1.O=CO
IC50 (LNCaP [1]): 279 nM
AUC(0-inf) [2]: 2290 ng·h/mL
inhibition in vivo at 50 mg/kg (LNCaP [4]): 34.5%

Compound: CC(C)NC[C@@H](C(=O)N1C[C@H]2CC[C@@H](C1)N2c1ncnc2c1[C@H](C)OC(=O)N2)c1ccc(Cl)cc1
IC50 (LNCaP [1]): 236 nM
IC50 [3]: 1.6 nM
AUC(0-inf) [2]: 3030 ng·h/mL
inhibition in vivo at 50 mg/kg (LNCaP [4]): 28%

Compound: CC(C)NC[C@@H](C(=O)N1CCN(c2ncnc3c2[C@H](C)C[C@H]3O)CC1)c1ccc(Cl)cc1 [IPATASERTIB]
IC50 (C-33-A): 726 nM
IC50 (RL95-2): 331 nM
IC50 (T47D): 328 nM
IC50 (PC-3): 3.54 µM
IC50 (ZR-75-1): 1320 nM
IC50 (TOV21G): 715 nM
IC50 (CAL-51): 265 nM
IC50 (cells): 945 nM

Compound: CC(C)NC[C@@H](C(=O)N1CC2(C1)CN(c1ncnc3c1[C@H](C)CC(=O)N3)C2)c1ccc(Cl)cc1
IC50 [3]: > 1000 nM

Compound: CC(C)NC[C@@H](C(=O)N1CCC(c2ncnc3c2[C@H](C)CC(=O)N3)CC1)c1ccc(Cl)cc1
IC50 [3]: > 1000 nM

Compound: CC(C)NC[C@@H](C(=O)N1C[C@H]2CC[C@@H](C1)N2c1ncnc2c1N(C)CC(=O)N2)c1ccc(Cl)cc1
IC50 [3]: 30 nM

Compound: CC(C)NC[C@@H](C(=O)N1CC=C(c2ncnc3c2[C@H](C)CC(=O)N3)CC1)c1ccc(Cl)cc1
IC50 [3]: 951 nM

Compound: CC(C)NC[C@@H](C(=O)N1C2CCC1CN(c1ncnc3c1[C@H](C)CC(=O)N3)C2)c1ccc(Cl)cc1
IC50 (LNCaP [1]): 79 nM
AUC(0-inf) [2]: 911 ng·h/mL

Continued, in another order:

fraction unbound at 16 h, up to 100 µM [5]: 0.513
Cmax [6]: 84.3 ng/mL
fraction unbound at 16 h, up to 100 µM [7]: 0.513
fraction unbound at 16 h, up to 100 µM [8]: 0.477
IC50 (LNCaP [1]): 103 nM
IC50 [3]: 1.6 nM
IC50 (Cytochrome P450 1A2): 25.2 µM
Tmax [9]: 2 h
half-life [10]: 93.6 min
AUC(0-inf) [11]: 181 ng·h/mL
IC50 (Cytochrome P450 2C19): > 50 µM
IC50 (Cytochrome P450 2C9): > 50 µM
clearance [12]: 178 mL/min/kg
IC50 (Cytochrome P450 3A4): 39.2 µM
IC50 (Cytochrome P450 2D6): > 50 µM
AUC(0-inf) [2]: 241 ng·h/mL
bioavailability [13]: 26.6%
MRT last at 24 h [14]: 2.23 h
Compound: CC(C)NC[C@@H](C(=O)N1CCN(c2ncnc3c2[C@H](C)CC(=O)N3)CC1)c1ccc(Cl)cc1
inhibition in vivo at 50 mg/kg (LNCaP [4]): 50%

IC50 (Cytochrome P450 1A2): > 30 µM
IC50 (Cytochrome P450 2C19): > 30 µM
IC50 (Cytochrome P450 2C9): > 30 µM
IC50 (Cytochrome P450 3A4): 1.09 µM
IC50 (Cytochrome P450 2D6): > 30 µM
Compound: C[C@@H]1CC(=O)Nc2ncnc(N3CCN(C(=O)[C@H](CNC4CC4)c4ccc(Cl)cc4)[C@@H]4C[C@@H]43)c21

IC50 [3]: 1.3 nM
IC50 (Cytochrome P450 1A2): 30 µM
IC50 (Cytochrome P450 2C19): 30 µM
IC50 (Cytochrome P450 2C9): 30 µM
IC50 (Cytochrome P450 3A4): 1.81 µM
IC50 (Cytochrome P450 2D6): 30 µM
Compound: COC1CCC(NC[C@@H](C(=O)N2CCN(c3ncnc4c3[C@H](C)CC(=O)N4)[C@H]3C[C@H]32)c2ccc(Cl)cc2)CC1 (stereo partly specified)

IC50 [3]: 220 nM
Compound: CC(C)NC[C@@H](C(=O)N1CCN(c2ncnc3c2[C@H](C)CC(=O)N3)C[C@@H]1C)c1ccc(Cl)cc1

IC50 (LNCaP [1]): 201 nM
IC50 [3]: 0.6 nM
AUC(0-inf) [2]: 2580 ng·h/mL
bioavailability [13]: 26.5%
Compound: CC(C)NC[C@@H](C(=O)N1CCN(c2ncnc3c2[C@H](C)OC(=O)N3)[C@H]2C[C@H]21)c1ccc(Cl)cc1
inhibition in vivo at 50 mg/kg (LNCaP [4]): 94.1%

IC50 [3]: 4.1 nM
IC50 (Cytochrome P450 1A2): > 30 µM
IC50 (Cytochrome P450 2C19): > 30 µM
IC50 (Cytochrome P450 2C9): > 30 µM
IC50 (Cytochrome P450 3A4): 4.33 µM
IC50 (Cytochrome P450 2D6): > 30 µM
Compound: C[C@@H]1CC(=O)Nc2ncnc(N3CCN(C(=O)[C@H](CNC4C5COCC54)c4ccc(Cl)cc4)[C@@H]4C[C@@H]43)c21 (stereo partly specified)

IC50 [3]: 6.8 nM
IC50 (Cytochrome P450 1A2): 6.48 µM
IC50 (Cytochrome P450 2C19): > 30 µM
IC50 (Cytochrome P450 2C9): > 30 µM
IC50 (Cytochrome P450 3A4): 10.1 µM
IC50 (Cytochrome P450 2D6): > 30 µM
Compound: C[C@@H]1CC(=O)Nc2ncnc(N3CCN(C(=O)[C@H](CN)c4ccc(Cl)cc4)[C@@H]4C[C@@H]43)c21

IC50 [3]: > 1000 nM
Compound: CC(C)NC[C@@H](C(=O)N1CCN(c2ncnc3c2[C@@H](C)CC(=O)N3)CC1)c1ccc(Cl)cc1

IC50 [3]: 414 nM
Compound: CC(C)NC[C@@H](C(=O)N1CC2CC1CN2c1ncnc2c1[C@H](C)CC(=O)N2)c1ccc(Cl)cc1 (stereo partly specified)
